The melting point is the temperature of the solid-liquid transition.

As to `CCOC(=O)[C@H](Cc1ccc(N)cc1)NC(=O)c1ccccc1` [Example 6, (S)-Ethyl-2-benzoylamino-3-(4-aminophenyl)propionate], the melting point was 120 to 122 °C.

The record behind these values is patent US6420424B1, “CCR-3 receptor antagonists” (SmithKline Beecham Corporation, priority 1998, dated 2002).
